Laboratory results as given in patent US6365191B1, “Formulations of paclitaxel, its derivatives or its analogs entrapped into nanoparticles of polymeric micelles, process for preparing same and the use thereof” (Dabur Research Foundation, priority 1999, dated 2002).

Experiment: Stability of the resulting drug solutions (paclitaxel in nanoparticles of polymeric micelles)
Assay type: physicochemical
Experimental: The polymer (5 mg) was dissolved in 5 ml of the diluting fluid followed by the addition of the anionic surfactant sodium deoxycholate (5 mg) to obtain a clear solution. Paclitaxel solution in absolute alcohol (20 mg/ml) was then added to the solution of polymer and the surfactant to obtain drug concentrations of 0.1, 0.15 and 0.2 mg/ml. Different diluting fluids were tried and the stability of the resulting drug solutions are tabulated below:
The polymer (5 mg) was dissolved in 5 ml of the diluting fluid followed by the addition of the anionic surfactant sodium deoxycholate (5 mg) to obtain a clear solution. Paclitaxel solution in absolute alcohol (20 mg/ml) was then added to the solution of polymer and the surfactant to get drug concentrations of 0.2, 0.25 and 0.3 mg/ml. The stability of the resulting drug solutions are tabulated below:
The polymer (5 mg) was dissolved in 5 ml of the diluting fluid followed by the addition of the anionic surfactant sodium deoxycholate (5 mg) to obtain a clear solution. Paclitaxel solution in absolute alcohol (20 mg/ml) was then added to the solution of polymer and the surfactant to obtain drug concentrations of 0.2 mg/ml. Different diluting fluids were tried and the stability of the resulting drug solutions are tabulated below:
The polymer (5 mg) was dissolved in 5 ml of the diluting fluid followed by the addition of the anionic surfactant sodium deoxycholate (5 mg) to obtain a clear solution. pH of the resulting solution was adjusted with sodium citrate. Paclitaxel solution in absolute alcohol (20 mg/ml) was then added to the solution of polymer and the surfactant to obtain drug concentrations of 0.2 mg/ml. Results are tabulated below:
The requisite amount of polymer was dissolved in 5 ml of the diluting fluid followed by the addition of requisite amount of anionic surfactant sodium deoxycholate to obtain the concentrations shown in the table below. pH of the resulting solution was adjusted to 6.4-6.8 with sodium citrate. Paclitaxel solution in absolute alcohol (20 mg/ml) was then added to the solution of polymer and the surfactant to obtain drug concentrations of 0.2 mg/ml. Results are tabulated below:
The polymer (0.625 mg) was dissolved in 5 ml of the diluting fluid followed by the addition of the anionic surfactant sodium deoxycholate to obtain a clear solution. pH of the resulting solution was adjusted to 6.4-6.8 with sodium citrate.
Paclitaxel solution in absolute alcohol (20 mg/ml) was then added to the solution of polymer and the surfactant to obtain drug concentrations of 0.2 mg/ml. Results are tabulated below:
The requisite amount of the polymer was dissolved in 5 ml of the diluting fluid followed by the addition of requisite amount of the anionic surfactant sodium deoxycholate to obtain the concentrations shown in the table below. pH of the resulting solution was adjusted to 6.4-6.8 with sodium citrate. Paclitaxel solution in absolute alcohol (20 mg/ml) was then added to the solution of polymer and the surfactant to get drug concentrations of 0.2, 0.5, 0.6, 0.7, 0.8, 2.4, 3.2, 4.0, and 10 mg/ml. Results are tabulated below:
The polymer (1.5 mg) was dissolved in 5 ml of the diluting fluid followed by the addition of the anionic surfactant sodium to obtain concentrations of 0, 0.10, 0.15, 0.20 and 0.25 mg/ml. pH of the resulting solution was adjusted to 6.4-6.8 with sodium citrate. Paclitaxel solution in absolute alcohol (20 mg/ml) was then added to the solution of polymer and the surfactant to obtain drug concentrations of 0.6 mg/ml. Results are tabulated below:
The required amount of the drug solution (3 ml) is added to the vehicle to obtain a drug concentration of 0.6 mg/ml. The perfusion fluid is stable for more than 12 hrs without any apparent signs of precipitation of drug. Stability is also indicated by the fact that more than 90% of the drug is available in solution form at the end of 24 hrs, when analyzed by HPLC.

Measured: Stability

CC(=O)O[C@H]1C(=O)[C@@]2(C)[C@H]([C@H](OC(=O)c3ccccc3)[C@]3(O)C[C@H](OC(=O)[C@H](O)[C@@H](NC(=O)c4ccccc4)c4ccccc4)C(C)=C1C3(C)C)[C@]1(OC(C)=O)CO[C@@H]1C[C@@H]2O [Paclitaxel, paclitaxel]
<2 h: Examples 24-27, row 2: 10% Dextrose, polymer 0.125 mg/ml, sodium DOC 0.0625 mg/ml, pH 6.4-6.8, paclitaxel 0.20 mg/ml | Examples 28-35: 10% Dextrose, polymer 0.125 mg/ml, sodium DOC 0.125 mg/ml, pH 6.4-6.8, paclitaxel 0.80 mg/ml | Examples 28-35: 10% Dextrose, polymer 0.3 mg/ml, sodium DOC 0.3 mg/ml, pH 6.4-6.8, paclitaxel 0.80 mg/ml
>8 h: Examples 1-9, row 7: 5% Dextrose, polymer 1 mg/ml, sodium DOC 1 mg/ml, paclitaxel 0.10 mg/ml, 10% loading | Examples 36-40, row 4: 10% Dextrose, polymer 0.3 mg/ml, sodium DOC 0.2 mg/ml, pH 6.4-6.8, paclitaxel 0.60 mg/ml | Examples 36-40, row 5: 10% Dextrose, polymer 0.3 mg/ml, sodium DOC 0.25 mg/ml, pH 6.4-6.8, paclitaxel 0.60 mg/ml
<6 h: Examples 19-23, row 5: 10% Dextrose, polymer 0.0625 mg/ml, sodium DOC 0.0625 mg/ml, pH 6.44, paclitaxel 0.20 mg/ml | Examples 28-35: 10% Dextrose, polymer 0.3 mg/ml, sodium DOC 0.3 mg/ml, pH 6.4-6.8, paclitaxel 0.60 mg/ml
<0.083 h: Examples 28-35: 10% Dextrose, polymer 0.125 mg/ml, sodium DOC 0.125 mg/ml, pH 6.4-6.8, paclitaxel 10.0 mg/ml
<1 h: Examples 1-9, row 1: Water for Injection, polymer 1 mg/ml, sodium DOC 1 mg/ml, paclitaxel 0.10 mg/ml, 10% loading | Examples 1-9, row 2: Water for Injection, polymer 1 mg/ml, sodium DOC 1 mg/ml, paclitaxel 0.15 mg/ml, 15% loading | Examples 1-9, row 3: Water for Injection, polymer 1 mg/ml, sodium DOC 1 mg/ml, paclitaxel 0.20 mg/ml, 20% loading | Examples 1-9, row 4: Normal Saline, polymer 1 mg/ml, sodium DOC 1 mg/ml, paclitaxel 0.10 mg/ml, 10% loading | Examples 1-9, row 5: Normal Saline, polymer 1 mg/ml, sodium DOC 1 mg/ml, paclitaxel 0.15 mg/ml, 15% loading | Examples 1-9, row 6: Normal Saline, polymer 1 mg/ml, sodium DOC 1 mg/ml, paclitaxel 0.20 mg/ml, 20% loading | Examples 15-17, row 1: 10% Dextrose (pH 3.9), polymer 1 mg/ml, sodium DOC 1 mg/ml, sodium citrate 0.00 mg/ml, pH 6.28, paclitaxel 0.20 mg/ml | Examples 24-27, row 1: 10% Dextrose, polymer 0.125 mg/ml, sodium DOC 0.03125 mg/ml, pH 6.4-6.8, paclitaxel 0.20 mg/ml | Examples 28-35: 10% Dextrose, polymer 0.125 mg/ml, sodium DOC 0.125 mg/ml, pH 6.4-6.8, paclitaxel 2.4 mg/ml | Examples 36-40, row 2: 10% Dextrose, polymer 0.3 mg/ml, sodium DOC 0.10 mg/ml, pH 6.4-6.8, paclitaxel 0.60 mg/ml
<0.5 h: Examples 28-35: 10% Dextrose, polymer 0.125 mg/ml, sodium DOC 0.125 mg/ml, pH 6.4-6.8, paclitaxel 3.2 mg/ml | Examples 36-40, row 1: 10% Dextrose, polymer 0.3 mg/ml, sodium DOC 0 mg/ml, pH 6.4-6.8, paclitaxel 0.60 mg/ml
<4 h: Examples 10-12, row 2: 5% Dextrose, polymer 1 mg/ml, sodium DOC 1 mg/ml, paclitaxel 0.25 mg/ml, 25% loading | Examples 10-12, row 3: 5% Dextrose, polymer 1 mg/ml, sodium DOC 1 mg/ml, paclitaxel 0.30 mg/ml, 30% loading | Examples 28-35: 10% Dextrose, polymer 0.125 mg/ml, sodium DOC 0.125 mg/ml, pH 6.4-6.8, paclitaxel 0.50 mg/ml | Examples 28-35: 10% Dextrose, polymer 0.3 mg/ml, sodium DOC 0.3 mg/ml, pH 6.4-6.8, paclitaxel 0.70 mg/ml | Examples 36-40, row 3: 10% Dextrose, polymer 0.3 mg/ml, sodium DOC 0.15 mg/ml, pH 6.4-6.8, paclitaxel 0.60 mg/ml
>4 h: Examples 1-9, row 9: 5% Dextrose, polymer 1 mg/ml, sodium DOC 1 mg/ml, paclitaxel 0.20 mg/ml, 20% loading | Examples 10-12, row 1: 5% Dextrose, polymer 1 mg/ml, sodium DOC 1 mg/ml, paclitaxel 0.20 mg/ml, 20% loading | Examples 13-14, row 1: 5% Dextrose (pH 5.1), polymer 1 mg/ml, sodium DOC 1 mg/ml, paclitaxel 0.20 mg/ml, 20% loading | Examples 15-17, row 3: 10% Dextrose (pH 3.9), polymer 1 mg/ml, sodium DOC 1 mg/ml, sodium citrate 0.12 mg/ml, pH 6.53, paclitaxel 0.20 mg/ml
>6 h: Examples 1-9, row 8: 5% Dextrose, polymer 1 mg/ml, sodium DOC 1 mg/ml, paclitaxel 0.15 mg/ml, 15% loading | Examples 13-14, row 2: 10% Dextrose (pH 5.1), polymer 1 mg/ml, sodium DOC 1 mg/ml, paclitaxel 0.20 mg/ml, 20% loading | Examples 15-17, row 2: 10% Dextrose (pH 3.9), polymer 1 mg/ml, sodium DOC 1 mg/ml, sodium citrate 0.06 mg/ml, pH 6.36, paclitaxel 0.20 mg/ml | Examples 19-23, row 1: 10% Dextrose, polymer 1 mg/ml, sodium DOC 1 mg/ml, pH 6.45, paclitaxel 0.20 mg/ml | Examples 19-23, row 2: 10% Dextrose, polymer 0.5 mg/ml, sodium DOC 0.5 mg/ml, pH 6.44, paclitaxel 0.20 mg/ml | Examples 19-23, row 3: 10% Dextrose, polymer 0.25 mg/ml, sodium DOC 0.25 mg/ml, pH 6.46, paclitaxel 0.20 mg/ml | Examples 19-23, row 4: 10% Dextrose, polymer 0.125 mg/ml, sodium DOC 0.125 mg/ml, pH 6.47, paclitaxel 0.20 mg/ml | Examples 24-27, row 3: 10% Dextrose, polymer 0.125 mg/ml, sodium DOC 0.09375 mg/ml, pH 6.4-6.8, paclitaxel 0.20 mg/ml | Examples 24-27, row 4: 10% Dextrose, polymer 0.125 mg/ml, sodium DOC 0.125 mg/ml, pH 6.4-6.8, paclitaxel 0.20 mg/ml | Examples 28-35: 10% Dextrose, polymer 0.125 mg/ml, sodium DOC 0.125 mg/ml, pH 6.4-6.8, paclitaxel 0.20 mg/ml | Examples 28-35: 10% Dextrose, polymer 0.3 mg/ml, sodium DOC 0.3 mg/ml, pH 6.4-6.8, paclitaxel 0.50 mg/ml
<0.25 h: Examples 28-35: 10% Dextrose, polymer 0.125 mg/ml, sodium DOC 0.125 mg/ml, pH 6.4-6.8, paclitaxel 4.0 mg/ml
<3 h: Examples 28-35: 10% Dextrose, polymer 0.2 mg/ml, sodium DOC 0.2 mg/ml, pH 6.4-6.8, paclitaxel 0.80 mg/ml
